Tested on: Phencyclidine (PCP)-induced passive avoidance reaction disorder
Test: Phencyclidine (PCP)-induced passive avoidance reaction disorder in rats
Assay type: in vivo, Wistar male rats
Details: 10 mg/kg oral, 30 min before PCP 2 mg/kg i.p.; test trial 24 hr after acquisition trial; max 300 seconds; versus vehicle group

In the case of Cc1oc2nc3c(c(NC(=O)CN4CCCC4=O)c2c1C)CCCC3 [compound A, 2-(2-oxopyrrolidin-1-yl)-N-(2,3-dimethyl-5,6,7,8-tetrahydrofuro[2,3-b]quinolin-4-yl)acetamide], the “latent time of test trial (passive avoidance reaction)” value is reported as “significantly prolonged the latent time shortened by the PCP administration”.
